Data from article PMC7020459, “Antioxidant and Enzyme Inhibitory Properties of the Polyphenolic-Rich Extract from an Ancient Apple Variety of Central Italy (Mela Rosa dei Monti Sibillini)” (Plants, 2019).

Legend:
[1] = DPPH free radical scavenging assay; settings: concentration causing 50% decrease in initial DPPH concentration
Description: (§1) The in vitro antioxidant activity of the different samples was assessed through three assays by means of standard methods using a SPECTROstar Omega (BMG LABTECH GmbH, Ortenberg, Germany) microplate reader. For the preparation of the stock solution, around 10 ± 1 mg of the different samples were diluted in 1 mL of methanol in an Eppendorf. Then, 100 µL of this stocked solution was diluted with 900 µL of methanol for the analyses. All analyses were conducted at least twice.
The free radical scavenging activity was evaluated using 1, 1-diphenyl-2-picrylhydrazyl (DPPH) on microplate analytical assay, as described by Beghelli et al. and Censi et al.. […] The absorbance of the wells was measured at 517 nm with a microplate reader against a blank prepared using methanol in addition to the DPPH reagent to get rid of any inherent solvent activity.
The total radical scavenging activity was measured using 2, 2′-azino-bis (3-ethylbenzothiazoline-6-sulphonic acid) (ABTS) assay. […] The working solution was obtained by filtration and dilution with methanol of the previous mixture to give an absorbance of AU 1 at 734 nm. […] After 15 min of incubation, the absorbance of each well was determined at 734 nm. […]

[2] = ABTS radical cation decolorization assay; settings: concentration causing 50% decrease in initial ABTS concentration
Description: as §1
The total radical scavenging activity was measured using 2, 2′-azino-bis (3-ethylbenzothiazoline-6-sulphonic acid) (ABTS) assay. The ABTS^•+ solution was freshly prepared by the oxidation of ABTS (10 mg) by MnO2 (0.75 g) in the presence of distilled water (4 mL), followed by 30 min of incubation away from light at room temperature. The working solution was obtained by filtration and dilution with methanol of the previous mixture to give an absorbance of AU 1 at 734 nm. The extract concentrations used were the same as for the DPPH assay, and 200 µL of the ABTS solution was added to the wells. After 15 min of incubation, the absorbance of each well was determined at 734 nm. Trolox (6-hydroxy-2,5,7,8-tetramethylchroman-2-carboxylic acid) was the reference compound used in both DPPH and ABTS assays. […]

[3] = target: T1, lipase type II from porcine pancreas (Sus scrofa, UniProt P00591); assay: lipase inhibition assay; type: biochemical; settings: maximal inhibition reached
T1 construct: purchased Sigma-Aldrich (Madrid, Spain); host or cells: porcine pancreas
T1 sequence (P00591 1-450): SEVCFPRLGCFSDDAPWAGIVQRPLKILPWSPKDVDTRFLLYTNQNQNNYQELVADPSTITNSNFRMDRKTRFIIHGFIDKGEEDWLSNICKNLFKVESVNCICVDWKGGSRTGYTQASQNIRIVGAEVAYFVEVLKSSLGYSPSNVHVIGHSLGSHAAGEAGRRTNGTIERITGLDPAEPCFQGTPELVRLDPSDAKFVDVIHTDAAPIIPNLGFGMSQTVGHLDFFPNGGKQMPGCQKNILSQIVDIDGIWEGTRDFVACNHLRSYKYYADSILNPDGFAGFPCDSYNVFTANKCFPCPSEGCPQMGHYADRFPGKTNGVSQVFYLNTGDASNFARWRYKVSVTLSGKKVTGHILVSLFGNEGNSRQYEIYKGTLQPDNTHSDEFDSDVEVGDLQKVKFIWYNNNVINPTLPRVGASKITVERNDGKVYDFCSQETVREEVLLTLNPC
Description: The lipase inhibition assay was based on a previous protocol. […] Then, 20 µL of pNPB (10 mM in ethanol) was added to each well and incubated for another 15 min at 37 °C. Blanks and control wells were made.

Row | SMILES | DPPH IC50 [1] [µg/mL] | ABTS IC50 [2] [µg/mL] | lipase inhibition reached [3] [%]
1 | Cc1c(C)c2c(c(C)c1O)CCC(C)(C(=O)O)O2 (stereo not drawn) [Trolox, 6-hydroxy-2,5,7,8-tetramethylchroman-2-carboxylic acid] | 5.3 ± 1.1 | 4.7 ± 0.2 | 
2 | CCCCCCCCCCC[C@@H](C[C@@H]1OC(=O)[C@H]1CCCCCC)OC(=O)[C@H](CC(C)C)NC=O [Orlistat] |  |  | 75
